How the values were obtained:
human subject = experiment: In vivo mRNA delivery to a human subject by intradermal injection, confocal fluorescence microscopy of biopsy; conditions: human male, ventral forearm, 400 ng RNA in 20 μL, 2.5 μg/μg, biopsy after 48 hours
Rat = experiment: mRNA delivery in rat by intradermal injection, anti-GFP histology; type: in vivo; conditions: GFP mRNA complexed at 2.5 μg/μg, necropsy 48 hours
[1] = tested on: human epidermal keratinocytes; experiment: GFP mRNA delivery to keratinocytes in serum-free medium or 50% FBS; type: cell-based; conditions: 20,000 keratinocytes, 0% FBS or 50% FBS, images 16 hours following transfection; DLinDHS at 2.5 μg/μg lipid-to-RNA; LNPs 300 ng final mRNA
[2] = tested on: primary human dermal fibroblasts; experiment: Time-lapse fluorescence imaging of labeled RNA / labeled lipid uptake in dermal fibroblasts; type: cell-based
[3] = tested on: primary human epidermal keratinocytes; experiment: Gene editing of keratinocytes with RNA encoding gene-editing proteins, T7E1 endonuclease digestion; type: cell-based; conditions: RNA encoding gene-editing proteins complexed with lipid
[4] = Particle size of DLinDHS/RNA complexes by dynamic light scattering; type: physicochemical; conditions: DLinDHS/RNA complexes formed in aqueous mRNA solution with varied sodium chloride concentration
[5] = tested on: primary human epidermal keratinocytes; experiment: Transfection of primary human epidermal keratinocytes with GFP-encoding RNA complexed with lipid, in 100% FBS; type: cell-based
[6] = Zeta potential of DLinDHS/RNA complexes versus buffer pH; type: physicochemical
[7] = tested on: confluent layer of primary human epidermal keratinocytes; experiment: Transfection of a confluent layer of primary human epidermal keratinocytes with GFP-encoding RNA; type: cell-based; conditions: images 24 hours following transfection; both lipid-to-RNA mass ratios tested
RNase A = experiment: Protection of mRNA from RNase A degradation, GFP readout in keratinocytes; type: cell-based; conditions: DLinDHS/mRNA complexes treated with RNase A after complexation, 2.5 μg/μg, 20,000 keratinocytes in serum-free medium
[8] = tested on: human peripheral blood mononuclear cells (hPBMCs); experiment: Transfection of human peripheral blood mononuclear cells with GFP-encoding RNA complexed with lipid; type: cell-based; conditions: images 16 hours following transfection; both lipid-to-RNA mass ratios tested
[9] = tested on: primary human adult dermal fibroblasts; experiment: Transfection of primary human adult dermal fibroblasts with GFP-encoding RNA; type: cell-based; conditions: images 16 hours following transfection; both lipid-to-RNA mass ratios tested

particle size of lipoplex (Z-average, DLS) [4]: ionic-strength dependent | dependence of zeta potential on pH ([6]; DLinDHS/RNA lipoplexes diluted into 20 mM citrate pH 3.0-6.0 or 20 mM phosphate pH 7.4): pH-dependent | zeta potential ([6]; DLinDHS/RNA lipoplexes, 2.5 μg/μg, 20 mM phosphate, pH 7.4): −22.1 mV | protection of complexed RNA from RNase A degradation (GFP expression) (RNase A): protected from degradation
Compound: CCCCC/C=C\C/C=C\CCCCCCCCN(CCCCN(CCCCCCCC/C=C\C/C=C\CCCCC)CC(O)CN)CC(O)CN (centres unmarked) [DHDLinS, N^1,N^4-dilinoleyl-N^1,N^4-di-(2-hydroxy-3-aminopropyl)-diaminobutane]
reporter protein (RFP) expression in skin (human subject): RFP-positive cells that have a morphology consistent with that of fibroblasts | reporter protein (GFP) expression in tissue (Rat): localized expression in the dermal layer | mRNA delivery in serum (GFP fluorescence) [1]: efficiently delivers mRNA in 50% serum | time after transfection at which protein expression begins ([2]; 100 ng GFP mRNA, 2.5 μg/μg, 20,000 fibroblasts in 10% FBS): ≤ 2.5 h | time to detection of mRNA in cytoplasm after contact with lipoplexes ([2]; 100 ng GFP mRNA, 20% Cy5-labeled, 2.5 μg/μg, 20,000 fibroblasts in 10% FBS): ≤ 50 min | contact of labeled lipid with cells ([2]; BODIPY-labeled DLinDHS (10:1), 200 ng GFP mRNA, fibroblasts): contacts cells within minutes after transfection | gene-editing efficiency [3]: gene edited at high efficiency | transfection of keratinocytes (GFP fluorescence) ([5]; 400 ng per well GFP RNA, complexation in DMEM, transfection in 100% FBS, images 8 hours after transfection, lipid without acetone purification): transfected with high efficiency | lipid-to-RNA mass ratios at which minimal increase in fluorescence signal was observed ([5]; DHDLinS purified by extraction with acetone, keratinocytes, images 16 hours following transfection): greater than 2 μg/μg | time after transfection at which a fluorescent signal was detected ([5]; experiment of FIG. 1, keratinocytes, 100% FBS): one | transfection of confluent keratinocytes (GFP fluorescence) [7]: effectively transfected | transfection of hPBMCs (GFP fluorescence) [8]: effectively transfected hPBMCs at both lipid-to-RNA mass ratios tested | transfection of adult dermal fibroblasts (GFP fluorescence) [9]: effectively transfected
